Where a SMILES comes first, the peptide text is derived from it. Bridges are numbered along the chain shown (N, C = ends). [ ]: non-standard residue; d: D form. The star is where a group is joined. DOTA = O=C(O)CN1CCN(CC(=O)O)CCN(CC(=O)*)CCN(CC(=O)O)CC1; Pen = CC(C)(S)[C@H](N)C(=O)O; Orn = NCCC[C@H](N)C(=O)O; Ahx = NCCCCCC(=O)O
Columns and labels:
[1] = target: T1, human UT (Homo sapiens, UniProt Q9UKP6); test: UT internalisation assay (ELISA) in HEK-293 cells expressing UT-MYC; format: cell-based; conditions: 1 h, graded concentrations up to 10^−6 M
T1 construct: expressed in transfected cells; host or cells: HEK-293
T1 sequence (Q9UKP6 1-389): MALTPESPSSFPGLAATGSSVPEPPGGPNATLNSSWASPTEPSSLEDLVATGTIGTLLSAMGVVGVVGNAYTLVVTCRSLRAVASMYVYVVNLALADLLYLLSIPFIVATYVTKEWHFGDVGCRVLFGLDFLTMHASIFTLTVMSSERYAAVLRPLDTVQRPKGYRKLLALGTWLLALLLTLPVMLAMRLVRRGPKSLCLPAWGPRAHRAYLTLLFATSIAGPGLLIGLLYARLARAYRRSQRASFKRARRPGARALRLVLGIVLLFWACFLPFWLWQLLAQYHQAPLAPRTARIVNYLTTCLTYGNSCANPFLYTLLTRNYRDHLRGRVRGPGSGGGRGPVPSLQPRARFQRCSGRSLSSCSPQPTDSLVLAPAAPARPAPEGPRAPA
Procedure: For ELISA experiments, HEK-293 cells expressing UT-MYC were plated at 10,000 cells/well into white, 96-well plates (Corning, Bagneaux-sur-Loing, France), previously coated with poly-L-ornithine (100 µg/mL, 1 h, 37 °C) and incubated overnight in culture medium. […] Cells were permeabilised or not with Triton X-100 (0.05%, 5 min). Non-specific binding sites were blocked with FBS (10%) and normal donkey serum (NDS, 2%, 1 h). Cells were then incubated with anti-MYC antibody (1 h, 20 °C) followed by incubation with GAM-HRP (1 h, 20 °C). After washes, chemoluminescence was detected with an ELISA kit (ThermoFisher Scientific, Montigny-Le-Bretonneux, France) and the InfinitePro200 plate reader (TECAN FRANCE, Lyon). Data are expressed as the ratio between intensity measured on the permeabilised cells and that measured on the non-permeabilised cells, compared to the average control value.

[2] = tested on: DLD-1 cells; test: Cell migration assay (modified Boyden chamber), DLD-1; format: cell-based, human; conditions: 10^−9 or 10^−7 M, 24 h
Procedure: (§1) DLD-1 and A549 cells were seeded (50,000 cells) on transwell filters with 8-µm pores previously coated with human fibronectin (25 µg/mL, 4 °C, overnight) in serum-free medium on the upper chamber. […] After 24 h incubation period at 37 °C, filters were rinsed with PBS and non-migrating cells were removed from the upper surface by using a cotton-swab. Migrating cells were fixed in successive baths of methanol (50, 70, 90 and 100%), stained with eosin and haematoxylin and filters were mounted on glass slides with Mowiol. Random phase contrast images of filters were then recorded, using a digital camera connected to a Nikon microscope (Eclipse TS-100) and image analysis was performed by using Image J’s Cell Counter. The data were represented as the ratio of treatment chemoattraction normalised to control.

[3] = tested on: A549 cells; test: Cell proliferation, A549; format: cell-based, human; conditions: 10^−9 or 10^−7 M, only observable after 48 h
[4] = target: T2, human UT-GFP (Homo sapiens, UniProt Q9UKP6); test: UT internalisation by confocal microscopy in HEK-293 cells expressing UT-GFP; format: cell-based; conditions: 10^−7 M, 1 h
T2 construct: expressed in transfected cells; host or cells: HEK-293 (transient)
T2 sequence (Q9UKP6 1-389): T1 sequence (Q9UKP6 1-389)
Procedure: For cytochemistry experiments, HEK-293 cells expressing UT-GFP were seeded at 70,000 cells/well into transparent, 24-well plates (Corning, Bagneaux-sur-Loing, France), previously coated with human fibronectin (25 µg/mL, overnight, 4 °C) and incubated overnight in culture medium. […] Cells were rinsed with PBS, fixed with paraformaldehyde (4%, 10 min) and counterstained with DAPI (1 µg/mL, 5 min) to label nuclei. Image analysis was performed by confocal microscopy (Leica TCS SP8 confocal laser scanning microscope).

[5] = tested on: A549 cells; test: Cell migration assay (modified Boyden chamber), A549; format: cell-based, human; conditions: 10^−9 or 10^−7 M, 24 h
Procedure: as §1

[6] = tested on: DLD-1 cells; test: Cell proliferation, DLD-1; format: cell-based, human; conditions: 10^−9 or 10^−7 M, only observable after 48 h
[7] = in vivo; design: species or system Swiss (nu/nu) mice; conditions: Swiss (nu/nu), mouse, iv, 2 MBq
Procedure: For tumour targeting studies, inocula (100 µL) containing a suspension of 5 × 10^6 freshly harvested A549 or DLD-1 cells in phosphate buffered-saline were injected subcutaneously into the right shoulder blade in Swiss (nu/nu) mice (n = 5 in each group). When the tumour size reached 250 mm^3 (approximatively 2-weeks), 2 MBq of ^111In-DOTA-hUII or ^111In-DOTA-urantide were injected into the tail vein. After 24 h, animals were sacrificed, and tumours were collected, directly frozen in isopentane (−50 °C) and stored at −80 °C.

[8] = target: T1, human UT; test: Competition binding of ^125I-hUII on HEK-293 cells expressing UT; conditions: displacement of ^125I-hUII (0.2 nM), HEK-293 cells expressing human UT, 2 h 22 °C
Procedure: Cultured HEK-293 cells expressing UT-MYC were rinsed three times with PBS, dried under a cold air stream and stored at −80 °C until binding experiments. […] At the end of the incubation, cells were washed three times with assay buffer, solubilised with 1% SDS and the radioactivity was counted in a gamma counter (LKB Wallac, Evry, France).

[9] = target: T1, human UT; test: Calcium assay (fluo-4, FlexStation) in HEK-293 cells expressing UT; format: cell-based; conditions: [Ca^2+]c increase, HEK-293 cells expressing human UT, 10^−11 to 10^−6 M
Procedure: HEK-293 cells expressing UT-MYC were plated at 50,000 cells/well into clear-bottom, black, 96-well plates (Corning, Bagneaux-sur-Loing, France), previously coated with poly-L-ornithine (100 µg/mL, 1 h, 37 °C) and incubated overnight in culture medium. After 24 h, cells were rinsed twice with HBSS buffer (20 mM HEPES, 0.5 mM MgCl2, 2.6 mM CaCl2, 7.7 mM Na2CO3, 1.4 mM MgSO4, 5.3 mM KCl, 138 mM NaCl, 0.1% BSA, 5.5 mM glucose, 2.5 mM probenecid, pH 7.4) (Sigma Aldrich, Saint-Quentin-Fallavier, France) and loaded (40 min at 37 °C) with the calcium-sensitive dye fluo-4 AM (ThermoFisher Scientific, Montigny-Le-Bretonneux, France) containing pluronic acid (20% in DMSO). […] Data were expressed as the ratio of maximum response to the average control value.

[10] = design: species or system C57BL/6 mice; conditions: mouse, in vivo, iv
Procedure: For biodistribution studies, C57BL6/6 wild-type mice were injected with ^111In-DOTA-hUII (3 MBq, 100 µL) into the tail vein. Mice were sacrificed at 4, 24, 48 and 72 h post-injection and blood and organs were collected. All samples were analysed with a gamma counter and the data presented were calculated as the percent injected dose per gram of tissue (% ID/g). Data were expressed as mean ± SEM obtained from four animals per kinetic time.

[11] = in vitro; format: in vitro ADME, human
Procedure: The mixture was incubated in a 5% CO2, 37 °C and 100 μL aliquots (in triplicates) were removed at different time points and treated with 200 μL of EtOH to precipitate serum proteins. Samples were then centrifuged for 15 min at 2500g and after centrifugation, 50 μL of supernatant was counted, and also analysed by thin layer chromatography to determine the amount of intact peptide and its metabolites in the serum.

[12] = total radioactivity, Ratio tumour/muscle

Compound | internalisation rate of UT (ELISA) [1] | accumulation of UT in cytosolic puncta (confocal microscopy) [4] | tissue to tissue ratio at 24 h [7] | tissue to tissue ratio at 24 h ([7]; Ratio tumour/muscle) | IC50 [8] [nM] | EC50 [9] [nM] | tissue to tissue ratio at 24 h ([7]; total radioactivity) | tissue to tissue ratio at 24 h [7, 12] | tissue to tissue ratio at 24 h ([7]; tumour/muscle ratio) | also measured
CC(C)[C@H](NC(=O)[C@@H]1CSSC[C@H](NC(=O)[C@H](CC(=O)O)NC(=O)[C@@H]2CCCN2C(=O)[C@@H](NC(=O)[C@@H](N)CCC(=O)O)[C@@H](C)O)C(=O)N[C@@H](Cc2ccccc2)C(=O)N[C@@H](Cc2c[nH]c3ccccc23)C(=O)N[C@@H](CCCCN)C(=O)N[C@@H](Cc2ccc(O)cc2)C(=O)N1)C(=O)O [hUII, H2N-ETPDc-[CFWKYC]V-CO2H] | provoked a dose-dependent increase in internalisation rate of UT | promoted a strong accumulation of UT in cytosolic puncta into cells | – | – | – | – | – | – | – | chemotactic migration [2]: stimulated chemotactic migration; proliferation rate [3]: increase the proliferation rate; chemotactic migration [5]: stimulated chemotactic migration; proliferation rate [6]: increase the proliferation rate
CC(C)[C@H](NC(=O)[C@@H]1CSSC(C)(C)[C@H](NC(=O)[C@H](CC(=O)O)NC(=O)CCCCCNC(=O)CN2CCN(CC(=O)O)CCN(CC(=O)O)CCN(CC(=O)O)CC2)C(=O)N[C@@H](Cc2ccccc2)C(=O)N[C@H](Cc2c[nH]c3ccccc23)C(=O)N[C@@H](CCCN)C(=O)N[C@@H](Cc2ccc(O)cc2)C(=O)N1)C(=O)O [DOTA-urantide, DOTA-Ahx-D[Pen-F-W-Orn-YC]V] ({DOTA-Ahx}-D[Pen]F[dW][Orn]YCV-OH; disulfide 2-7) | failed to provoke UT internalisation | ineffective | 2.08 ± 0.45 | 2.47 ± 0.15 | – | – | – | – | – | –
CC(C)[C@H](NC(=O)[C@@H]1CSSC(C)(C)[C@H](NC(=O)[C@@H](N)CC(=O)O)C(=O)N[C@@H](Cc2ccccc2)C(=O)N[C@H](Cc2c[nH]c3ccccc23)C(=O)N[C@@H](CCCN)C(=O)N[C@@H](Cc2ccc(O)cc2)C(=O)N1)C(=O)O [urantide, c-[Pen^5, D-Trp^7, Orn^8]hUII4-11, reference compound] (H-D[Pen]F[dW][Orn]YCV-OH; disulfide 2-7; N-terminus and C-terminus assumed) | failed to provoke UT internalisation | ineffective | – | – | 29 ± 11.2 | 50.5 ± 16.1 | – | – | – | –
CC(C)[C@H](NC(=O)[C@@H]1CSSC[C@H](NC(=O)[C@H](CC(=O)O)NC(=O)[C@@H]2CCCN2C(=O)[C@@H](NC(=O)[C@H](CCC(=O)O)NC(=O)CCCCCNC(=O)CN2CCN(CC(=O)O)CCN(CC(=O)O)CCN(CC(=O)O)CC2)[C@@H](C)O)C(=O)N[C@@H](Cc2ccccc2)C(=O)N[C@@H](Cc2c[nH]c3ccccc23)C(=O)N[C@@H](CCCCN)C(=O)N[C@@H](Cc2ccc(O)cc2)C(=O)N1)C(=O)O [DOTA-hUII, DOTA-Ahx-ETPD[CFWKYC]V] | exerted similar effects, with very close potency and efficacy | promoted a strong accumulation of UT in cytosolic puncta into cells | 2.85 ± 0.66 | 3.33 ± 0.96 | 9.13 ± 2.06 | 19.4 ± 2.47 | – | – | – | –
CC(C)[C@H](NC(=O)[C@@H]1CSSC(C)(C)[C@H](NC(=O)[C@H](CC(=O)O)NC(=O)CCCCCNC(=O)CN2CCN(CC(=O)O)CCN(CC(=O)O)CCN(CC(=O)O)CC2)C(=O)N[C@@H](Cc2ccccc2)C(=O)N[C@H](Cc2c[nH]c3ccccc23)C(=O)N[C@@H](CCCN)C(=O)N[C@@H](Cc2ccc(O)cc2)C(=O)N1)C(=O)O [^111In-DOTA-urantide, metal not drawn] ({DOTA-Ahx}-D[Pen]F[dW][Orn]YCV-OH; disulfide 2-7) | – | – | – | – | – | – | 2.08 ± 0.45 | 2.47 ± 0.15 | ~2.5 | –
CC(C)[C@H](NC(=O)[C@@H]1CSSC[C@H](NC(=O)[C@H](CC(=O)O)NC(=O)[C@@H]2CCCN2C(=O)[C@@H](NC(=O)[C@H](CCC(=O)O)NC(=O)CCCCCNC(=O)CN2CCN(CC(=O)O)CCN(CC(=O)O)CCN(CC(=O)O)CC2)[C@@H](C)O)C(=O)N[C@@H](Cc2ccccc2)C(=O)N[C@@H](Cc2c[nH]c3ccccc23)C(=O)N[C@@H](CCCCN)C(=O)N[C@@H](Cc2ccc(O)cc2)C(=O)N1)C(=O)O [^111In-DOTA-hUII, metal not drawn] | – | – | – | – | – | – | 2.85 ± 0.66 | 3.33 ± 0.96 | ~2.5 | radioactive DOTA-peptide cleared from animals [10]: more than 90%; Percent of Radiolabelled Peptide [11]: 98 ± 2 (%); metabolised at 3 h, 0.6 µM ([11]; human, serum): 30%; remaining at 1 h, 0.6 µM ([11]; human, serum): 82 ± 2%; remaining at 3 h, 0.6 µM ([11]; human, serum): 71 ± 4%
